{"source": "ChEMBL document CHEMBL3046685", "about": "“Otebo bean (Phaseolus vulgaris) sensitivity to pre-emergence herbicides” (Crop Prot, 2006)", "key": {"Phaseolus vulgaris [1]": {"tested_on": "Phaseolus vulgaris", "experiment": "Phytotoxicity in Phaseolus vulgaris (otebo bean) assessed as visual injury at 2000 g ai/ha applied as spray during pre-emergence treatment for 1 to 2 days measured 7 days post emergence relative to untreated control", "type": "organism-based", "conditions": "in vivo, other"}, "Phaseolus vulgaris [2]": {"tested_on": "Phaseolus vulgaris", "experiment": "Phytotoxicity in Phaseolus vulgaris (otebo bean) assessed as visual injury at 1000 g ai/ha applied as spray during pre-emergence treatment for 1 to 2 days measured 28 days post emergence relative to untreated control", "type": "organism-based", "conditions": "in vivo, other"}, "Phaseolus vulgaris [3]": {"tested_on": "Phaseolus vulgaris", "experiment": "Phytotoxicity in Phaseolus vulgaris (otebo bean) assessed as plant height at 2000 g ai/ha applied as spray during pre-emergence treatment for 1 to 2 days measured 28 days post emergence (reference value: 29 cm)", "type": "organism-based", "conditions": "in vivo, other"}, "Phaseolus vulgaris [4]": {"tested_on": "Phaseolus vulgaris", "experiment": "Phytotoxicity in Phaseolus vulgaris (otebo bean) assessed as visual injury at 2000 g ai/ha applied as spray during pre-emergence treatment for 1 to 2 days measured 14 days post emergence relative to untreated control", "type": "organism-based", "conditions": "in vivo, other"}, "Phaseolus vulgaris [5]": {"tested_on": "Phaseolus vulgaris", "experiment": "Increase in Phaseolus vulgaris (otebo bean) yield at 2000 g ai/ha applied as spray during pre-emergence treatment for 1 to 2 days (reference value: 3.8 t/ha)", "type": "functional"}, "Phaseolus vulgaris [6]": {"tested_on": "Phaseolus vulgaris", "experiment": "Phytotoxicity in Phaseolus vulgaris (otebo bean) assessed as plant height at 1000 g ai/ha applied as spray during pre-emergence treatment for 1 to 2 days measured 28 days post emergence (reference value: 29 cm)", "type": "organism-based", "conditions": "in vivo, other"}, "Phaseolus vulgaris [7]": {"tested_on": "Phaseolus vulgaris", "experiment": "Phytotoxicity in Phaseolus vulgaris (otebo bean) assessed as visual injury at 2000 g ai/ha applied as spray during pre-emergence treatment for 1 to 2 days measured 28 days post emergence relative to untreated control", "type": "organism-based", "conditions": "in vivo, other"}, "Phaseolus vulgaris [8]": {"tested_on": "Phaseolus vulgaris", "experiment": "Phytotoxicity in Phaseolus vulgaris (otebo bean) assessed as change in moisture content at 1000 to 2000 g ai/ha applied as spray during preemergence treatment for 1 to 2 days", "type": "organism-based", "conditions": "in vivo, other"}, "Phaseolus vulgaris [9]": {"tested_on": "Phaseolus vulgaris", "experiment": "Phytotoxicity in Phaseolus vulgaris (otebo bean) assessed as visual injury at 1000 g ai/ha applied as spray during pre-emergence treatment for 1 to 2 days measured 14 days post emergence relative to untreated control", "type": "organism-based", "conditions": "in vivo, other"}, "Phaseolus vulgaris [10]": {"tested_on": "Phaseolus vulgaris", "experiment": "Increase in Phaseolus vulgaris (otebo bean) yield at 1000 g ai/ha applied as spray during pre-emergence treatment for 1 to 2 days (reference value: 3.8 t/ha)", "type": "functional"}, "Phaseolus vulgaris [11]": {"tested_on": "Phaseolus vulgaris", "experiment": "Phytotoxicity in Phaseolus vulgaris (otebo bean) assessed as shoot dry weight at 2000 g ai/ha applied as spray during pre-emergence treatment for 1 to 2 days measured 42 days post emergence (reference value: 164 g)", "type": "organism-based", "conditions": "in vivo, other"}, "Phaseolus vulgaris [12]": {"tested_on": "Phaseolus vulgaris", "experiment": "Phytotoxicity in Phaseolus vulgaris (otebo bean) assessed as visual injury at 1000 g ai/ha applied as spray during pre-emergence treatment for 1 to 2 days measured 7 days post emergence relative to untreated control", "type": "organism-based", "conditions": "in vivo, other"}, "Phaseolus vulgaris [13]": {"tested_on": "Phaseolus vulgaris", "experiment": "Phytotoxicity in Phaseolus vulgaris (otebo bean) assessed as shoot dry weight at 1000 g ai/ha applied as spray during pre-emergence treatment for 1 to 2 days measured 42 days post emergence (reference value: 164 g)", "type": "organism-based", "conditions": "in vivo, other"}, "Phaseolus vulgaris [14]": {"tested_on": "Phaseolus vulgaris", "experiment": "Phytotoxicity in Phaseolus vulgaris (otebo bean) assessed as plant height at 75 g ai/ha applied as spray during pre-emergence treatment for 1 to 2 days measured 28 days post emergence (reference value: 29 cm)", "type": "organism-based", "conditions": "in vivo, other"}, "Phaseolus vulgaris [15]": {"tested_on": "Phaseolus vulgaris", "experiment": "Increase in Phaseolus vulgaris (otebo bean) yield at 150 g ai/ha applied as spray during pre-emergence treatment for 1 to 2 days (reference value: 3.8 t/ha)", "type": "functional"}, "Phaseolus vulgaris [16]": {"tested_on": "Phaseolus vulgaris", "experiment": "Phytotoxicity in Phaseolus vulgaris (otebo bean) assessed as shoot dry weight at 75 g ai/ha applied as spray during pre-emergence treatment for 1 to 2 days measured 42 days post emergence (reference value: 164 g)", "type": "organism-based", "conditions": "in vivo, other"}, "Phaseolus vulgaris [17]": {"tested_on": "Phaseolus vulgaris", "experiment": "Phytotoxicity in Phaseolus vulgaris (cranberry bean) assessed as visual injury at 0.075 to 0.15 kg/ha applied during pre-emergence relative to control", "type": "organism-based", "conditions": "in vivo, other"}, "Phaseolus vulgaris [18]": {"tested_on": "Phaseolus vulgaris", "experiment": "Phytotoxicity in Phaseolus vulgaris (otebo bean) assessed as visual injury at 75 g ai/ha applied as spray during pre-emergence treatment for 1 to 2 days measured 14 days post emergence relative to untreated control", "type": "organism-based", "conditions": "in vivo, other"}, "Phaseolus vulgaris [19]": {"tested_on": "Phaseolus vulgaris", "experiment": "Phytotoxicity in Phaseolus vulgaris (black bean) assessed as visual injury treated through soil application relative to control", "type": "organism-based", "conditions": "in vivo, other"}, "Phaseolus vulgaris [20]": {"tested_on": "Phaseolus vulgaris", "experiment": "Phytotoxicity in Phaseolus vulgaris (dry bean) assessed as visual injury relative to control", "type": "organism-based", "conditions": "in vivo"}, "Phaseolus vulgaris [21]": {"tested_on": "Phaseolus vulgaris", "experiment": "Phytotoxicity in Phaseolus vulgaris (pinto bean) assessed as visual injury at 75 g ai/ha applied prior to planting relative to control", "type": "organism-based", "conditions": "in vivo, other"}, "Phaseolus vulgaris [22]": {"tested_on": "Phaseolus vulgaris", "experiment": "Phytotoxicity in Phaseolus vulgaris (otebo bean) assessed as visual injury at 150 g ai/ha applied as spray during pre-emergence treatment for 1 to 2 days measured 28 days post emergence relative to untreated control", "type": "organism-based", "conditions": "in vivo, other"}, "Phaseolus vulgaris [23]": {"tested_on": "Phaseolus vulgaris", "experiment": "Phytotoxicity in Phaseolus vulgaris (otebo bean) assessed as visual injury at 150 g ai/ha applied as spray during pre-emergence treatment for 1 to 2 days measured 7 days post emergence relative to untreated control", "type": "organism-based", "conditions": "in vivo, other"}, "Phaseolus vulgaris [24]": {"tested_on": "Phaseolus vulgaris", "experiment": "Phytotoxicity in Phaseolus vulgaris (otebo bean) assessed as change in moisture content at 75 to 150 g ai/ha applied as spray during preemergence treatment for 1 to 2 days", "type": "organism-based", "conditions": "in vivo, other"}, "Phaseolus vulgaris [25]": {"tested_on": "Phaseolus vulgaris", "experiment": "Phytotoxicity in Phaseolus vulgaris (cranberry bean) assessed as visual injury at 0.075 to 0.15 kg/ha applied prior to planting relative to control", "type": "organism-based", "conditions": "in vivo, other"}, "Phaseolus vulgaris [26]": {"tested_on": "Phaseolus vulgaris", "experiment": "Phytotoxicity in Phaseolus vulgaris (black bean) assessed as reduction in crop yield treated through soil application relative to control", "type": "organism-based", "conditions": "in vivo, other"}, "Phaseolus vulgaris [27]": {"tested_on": "Phaseolus vulgaris", "experiment": "Phytotoxicity in Phaseolus vulgaris (otebo bean) assessed as plant height at 150 g ai/ha applied as spray during pre-emergence treatment for 1 to 2 days measured 28 days post emergence (reference value: 29 cm)", "type": "organism-based", "conditions": "in vivo, other"}, "Phaseolus vulgaris [28]": {"tested_on": "Phaseolus vulgaris", "experiment": "Phytotoxicity in Phaseolus vulgaris (otebo bean) assessed as visual injury at 75 g ai/ha applied as spray during pre-emergence treatment for 1 to 2 days measured 28 days post emergence relative to untreated control", "type": "organism-based", "conditions": "in vivo, other"}, "Phaseolus vulgaris [29]": {"tested_on": "Phaseolus vulgaris", "experiment": "Phytotoxicity in Phaseolus vulgaris (otebo bean) assessed as visual injury at 75 g ai/ha applied as spray during pre-emergence treatment for 1 to 2 days measured 7 days post emergence relative to untreated control", "type": "organism-based", "conditions": "in vivo, other"}, "Phaseolus vulgaris [30]": {"tested_on": "Phaseolus vulgaris", "experiment": "Phytotoxicity in Phaseolus vulgaris (otebo bean) assessed as shoot dry weight at 150 g ai/ha applied as spray during pre-emergence treatment for 1 to 2 days measured 42 days post emergence (reference value: 164 g)", "type": "organism-based", "conditions": "in vivo, other"}, "Phaseolus vulgaris [31]": {"tested_on": "Phaseolus vulgaris", "experiment": "Increase in Phaseolus vulgaris (otebo bean) yield at 75 g ai/ha applied as spray during pre-emergence treatment for 1 to 2 days (reference value: 3.8 t/ha)", "type": "functional"}, "Phaseolus vulgaris [32]": {"tested_on": "Phaseolus vulgaris", "experiment": "Phytotoxicity in Phaseolus vulgaris (otebo bean) assessed as visual injury at 150 g ai/ha applied as spray during pre-emergence treatment for 1 to 2 days measured 14 days post emergence relative to untreated control", "type": "organism-based", "conditions": "in vivo, other"}}, "data": [{"compound": "CC1(C)CON(Cc2ccccc2Cl)C1=O", "note": "[CLOMAZONE]", "values": [{"measurement": "Activity", "setting": "Phaseolus vulgaris [1]", "value": 13, "unit": "%"}, {"measurement": "Activity", "setting": "Phaseolus vulgaris [2]", "value": 2, "unit": "%"}, {"measurement": "Activity", "setting": "Phaseolus vulgaris [3]", "value": 26, "unit": "cm"}, {"measurement": "Activity", "setting": "Phaseolus vulgaris [4]", "value": 12, "unit": "%"}, {"measurement": "Crop_yield", "setting": "Phaseolus vulgaris [5]", "value": 4.1, "unit": "tons/ha"}, {"measurement": "Activity", "setting": "Phaseolus vulgaris [6]", "value": 28, "unit": "cm"}, {"measurement": "Activity", "setting": "Phaseolus vulgaris [7]", "value": 9, "unit": "%"}, {"measurement": "Activity", "setting": "Phaseolus vulgaris [8]", "value": "Non-toxic"}, {"measurement": "Activity", "setting": "Phaseolus vulgaris [9]", "value": 5, "unit": "%"}, {"measurement": "Crop_yield", "setting": "Phaseolus vulgaris [10]", "value": 4.5, "unit": "tons/ha"}, {"measurement": "Activity", "setting": "Phaseolus vulgaris [11]", "value": 123, "unit": "g"}, {"measurement": "Activity", "setting": "Phaseolus vulgaris [12]", "value": 5, "unit": "%"}, {"measurement": "Activity", "setting": "Phaseolus vulgaris [13]", "value": 143, "unit": "g"}]}, {"compound": "CCc1cnc(C2=NC(C)(C(C)C)C(=O)N2)c(C(=O)O)c1", "note": "(configuration not stated) [IMAZETHAPYR]", "values": [{"measurement": "Activity", "setting": "Phaseolus vulgaris [14]", "value": 26, "unit": "cm"}, {"measurement": "Crop_yield", "setting": "Phaseolus vulgaris [15]", "value": 2.9, "unit": "tons/ha"}, {"measurement": "Activity", "setting": "Phaseolus vulgaris [16]", "value": 118, "unit": "g"}, {"measurement": "Activity", "setting": "Phaseolus vulgaris [17]", "value": "< 5", "unit": "%"}, {"measurement": "Activity", "setting": "Phaseolus vulgaris [18]", "value": 0, "unit": "%"}, {"measurement": "Activity", "setting": "Phaseolus vulgaris [19]", "value": "<= 6%"}, {"measurement": "Activity", "setting": "Phaseolus vulgaris [20]", "value": "<= 20%"}, {"measurement": "Activity", "setting": "Phaseolus vulgaris [21]", "value": "< 6", "unit": "%"}, {"measurement": "Activity", "setting": "Phaseolus vulgaris [22]", "value": 16, "unit": "%"}, {"measurement": "Activity", "setting": "Phaseolus vulgaris [23]", "value": 0, "unit": "%"}, {"measurement": "Activity", "setting": "Phaseolus vulgaris [24]", "value": "Non-toxic"}, {"measurement": "Activity", "setting": "Phaseolus vulgaris [25]", "value": "< 5", "unit": "%"}, {"measurement": "Crop_yield", "setting": "Phaseolus vulgaris [26]", "value": 49, "unit": "%"}, {"measurement": "Activity", "setting": "Phaseolus vulgaris [27]", "value": 22, "unit": "cm"}, {"measurement": "Activity", "setting": "Phaseolus vulgaris [28]", "value": 6, "unit": "%"}, {"measurement": "Activity", "setting": "Phaseolus vulgaris [29]", "value": 0, "unit": "%"}, {"measurement": "Activity", "setting": "Phaseolus vulgaris [30]", "value": 95, "unit": "g"}, {"measurement": "Crop_yield", "setting": "Phaseolus vulgaris [31]", "value": 3.2, "unit": "tons/ha"}, {"measurement": "Activity", "setting": "Phaseolus vulgaris [32]", "value": 1, "unit": "%"}]}]}
